Results from patent publication US5846720A, “Methods of determining chemicals that modulate expression of genes associated with cardiovascular disease” (Oncogene Science, Inc., priority 1996, dated 1998).

What was measured:
[1] = system: G-CSF mRNA; test: S1 nuclease protection, G-CSF mRNA; format: cell-based, human; conditions: 5637 cells, 18 hours
Experimental: S1 Nuclease protection assays were carried out as described in reference 118.
To further confirm, that compounds that had been identified in a luciferase expression assay using a G-CSF specific reporter cell line would be active in inducing transcription of the endogenous G-CSF gene, cells from the parental cell line 5637 used to construct the reporter cell line were incubated with cycloheximide (25 ug/ml), DMSO (0.5%,solvent control) and low, medium and high concentrations of the compounds 542 (10, 50, 250 μM),1255 (20, 100, 500 uM), 1793(0.25, 1.2, 6.25 μM) and 1904 (20, 100 uM) for 18 hours. RNA was extracted and the concentration of G-CSF, GM-CSF and gamma-actin mRNA was determined by the S1 protection method as described in above. The positions of G-CSF GM-CSF and gamma-actin specific protected fragments are indicated (G, GM, A) at the left side of the gel (FIG. 37).

[2] = system: G-CSF promoter; test: G-CSF promoter/luciferase reporter assay (high-throughput screen I), G21 cells; conditions: Table 2, 6 h incubation; for GCSF fold induction relative to solvent control: transcriptional activators; for GCSF fold inhibition relative to solvent control: transcriptional inhibitors
[3] = system: MMTV promoter; test: MMTV promoter/luciferase reporter assay (high-throughput screen I, control for specificity), M10 cells; format: cell-based, mouse; conditions: Table 2, 6 h incubation; for MMTV fold induction relative to solvent control: transcriptional activators, original high-throughput assay; for MMTV fold inhibition relative to solvent control: transcriptional inhibitors
Experimental: pMluci and pSV2Neo, an antibiotic resistance plasmid (84), were co-transfected into NIH/3T3 mouse fibroblast cells using the calcium phosphate precipitation method (85) with a commercially available kit (Pharmacia, Piscataway N.J.). Two days later, cells were transferred to media containing 0.4 mg/ml G418 and were grown for an additional 10-14 days. G418-resistant clones were isolated by standard methods. Once sufficient cell numbers were obtained, clones were analyzed based on several criteria: constitutive luciferase production, induction of luciferase expression by dexamethasone ([…], Sigma, St. Louis, Mo.), satisfactory attachment to microtiter plates used in the high-throughput screen (see section G) and acceptable standard deviation in multiple luciferase expression assays (see below for assay protocol). This analysis was carried out using the luciferase assay conditions described above. Of the clones which satisfied the above criteria for the high throughput screen, one clone, M10, was selected for use.

[4] = system: hGH promoter; test: hGH promoter/luciferase reporter assay (high-throughput screen I), 532 cells; format: cell-based, rat; conditions: Table 2, 6 h incubation; for hGH fold induction relative to solvent control: transcriptional activators; for hGH fold inhibition relative to solvent control: transcriptional inhibitors
Text: 6. a GC rat pituitary cell line, transfected with the growth hormone reporter plasmid, designated 532, deposited under ATCC Accession No. CRL 10663.

[5] = system: G-CSF promoter; test: G-CSF promoter/luciferase induction by known inducers, clone G1002; format: cell-based, human; conditions: G1002, 0.5 ng/ml, 10.5 hours, serum-containing media
Experimental: U5637 bladder carcinoma cells were transfected with pGVU150 (FIG. 21) or pGVU140 plus pTKNeo3 either by electroporation using a BRL (Gaithersburg, Md.) Cellporator electroporation device or by lipofection using BRL lipofectin and following the manufacturer's protocol. Clones were analyzed for luciferase expression and those testing positive expanded further and frozen in liquid nitrogen. Further analysis of 6 clones (G1002, G2005, G2071, G2085, G3014, G3031) included Southern blotting, reaction to known inducers, satisfactory attachment to microtiter plates and acceptable standard deviation in multiple luciferase expression assays. Clone G1002 was selected for use in the high throughput screen.
Cell clones with correctly integrated promoter/reporter constructs were analyzed for correct reaction to known transcriptional inducers. […] Both TNF-alpha and PMA induction levels of clone G1002 were influenced by the presence or absence of epidermal growth factor (EGF). […] The 9.3 fold induction by PMA in the absence of EGF was reduced to 5.6 fold by including EGF in the serum-free incubation mixture. Similar differences were observed, when EGF was substituted by 10% fetal calf serum.

| Compound | amount of G-CSF mRNA (S1 nuclease protection) [1] | GCSF fold induction relative to solvent control [2] [fold] | MMTV fold induction relative to solvent control [3] [fold] | hGH fold induction relative to solvent control [4] [fold] | GCSF fold inhibition relative to solvent control [2] [fold] | MMTV fold inhibition relative to solvent control [3] [fold] | hGH fold inhibition relative to solvent control [4] [fold] | G-CSF promoter induction [5] [fold] |
| --- | --- | --- | --- | --- | --- | --- | --- | --- |
| Nc1c2ccccc2nc2ccccc12 [#1904] | increased mRNA production | – | – | – | – | – | – | – |
| CCOC(=O)c1c[nH]c(=S)[nH]c1=O [Chemical 1740] | – | 0.74 | 0.87 | 17.77 | – | – | – | – |
| N[C@@H](CCCCNC(=O)OCc1ccccc1)C(=O)O [Chemical 1747] | – | 0.78 | 0.86 | 6.16 | – | – | – | – |
| Cc1cc(=O)oc2cc(OCC(=O)O)ccc12 [Chemical 1764] | – | – | – | – | 0.55 | 0.82 | 7.14 | – |
| Cc1c(C(=O)O)c(O)cc2c1C(=O)c1c(O)c([C@@H]3O[C@H](CO)[C@@H](O)[C@H](O)[C@H]3O)c(O)c(O)c1C2=O [Chemical 1770] | – | – | – | – | 0.54 | 0.57 | 10.00 | – |
| NCCC(=O)N[C@@H](Cc1cnc[nH]1)C(=O)O [Chemical 1771] | – | – | – | – | 0.71 | 0.72 | 10.00 | – |
| Cc1cc(C2(c3cc(C)c(O)c(CN(CC(=O)O)CC(=O)O)c3)OC(=O)c3ccccc32)cc(CN(CC(=O)O)CC(=O)O)c1O [Chemical 1773] | – | – | – | – | 0.62 | 0.67 | 10.00 | – |
| N=c1cc2oc3cc(N)ccc3nc-2c2ccccc12 [Chemical 1776] | – | 3.50 | 1.36 | 0.15 | – | – | – | – |
| CN(C)C(=S)SCC#N [Chemical 1793] | – | 9.50 | 1.21 | 0.52 | – | – | – | – |
| O=C(O)C1CCC1 [Chemical 1804] | – | 1.05 | 0.49 | 9.41 | – | – | – | – |
| O=c1[nH]c(=O)c2nc3ccccc3nc2[nH]1 [Chemical 1890] | – | – | – | – | 0.80 | 0.58 | 5.26 | – |
| Nc1c2ccccc2nc2ccccc12 [Chemical 1904] | – | 4.12 | 0.82 | 0.54 | – | – | – | – |
| Brc1cccc(-c2ccccc2)c1 [Chemical 1994] | – | 3.29 | 0.63 | 0.34 | – | – | – | – |
| CC(C)(C)c1ccc(Br)cc1 [Chemical 2001] | – | 3.11 | 1.12 | 0.74 | – | – | – | – |
| Cc1n[nH]c(C)c1Br [Chemical 2009] | – | – | – | – | 3.70 | 0.64 | 0.57 | – |
| Nc1c(Br)cc([N+](=O)[O-])cc1[N+](=O)[O-] [Chemical 2010] | – | – | – | – | 0.80 | 3.57 | 0.63 | – |
| COc1c(F)cc(Br)cc1[N+](=O)[O-] [Chemical 2030] | – | 5.53 | 0.87 | 0.67 | – | – | – | – |
| O=C(O)c1ccc(Br)o1 [Chemical 2035] | – | – | – | – | 0.57 | 0.89 | 7.14 | – |

| Compound | amount of G-CSF mRNA (S1 nuclease protection) [1] | GCSF fold induction relative to solvent control [2] [fold] | MMTV fold induction relative to solvent control [3] [fold] | hGH fold induction relative to solvent control [4] [fold] | GCSF fold inhibition relative to solvent control [2] [fold] | MMTV fold inhibition relative to solvent control [3] [fold] | hGH fold inhibition relative to solvent control [4] [fold] | G-CSF promoter induction [5] [fold] |
| --- | --- | --- | --- | --- | --- | --- | --- | --- |
| Nc1nc2c(nc(Br)n2[C@@H]2O[C@H](CO)[C@@H](O)[C@H]2O)c(=O)[nH]1 [Chemical 2036] | – | – | – | – | 0.58 | 0.81 | 4.34 | – |
| CCCCCCCCCCCCCCCCBr [Chemical 2037] | – | – | – | – | 0.51 | 0.50 | 4.00 | – |
| COc1cc2oc(=O)cc(CBr)c2cc1OC [Chemical 2064] | – | 0.82 | 2.53 | 1.10 | – | – | – | – |
| Cc1n[nH]cc1Br [Chemical 2082] | – | – | – | – | 5.26 | 1.23 | 0.65 | – |
| CC(CCl)CBr (centres unmarked) [Chemical 2096] | – | 3.27 | 0.89 | 0.61 | – | – | – | – |
| ClCCCCCBr [Chemical 2097] | – | 5.09 | 1.22 | 0.88 | – | – | – | – |
| OCc1cccc(Cl)c1 [Chemical 2121] | – | – | – | – | 4.76 | 1.14 | 0.40 | – |
| ClCc1ccc(Cl)cc1 [Chemical 2129] | – | 3.23 | 0.95 | 0.75 | – | – | – | – |
| O=C1CCCCC1Cl (centres unmarked) [Chemical 2148] | – | 0.45 | 2.82 | 0.92 | – | – | – | – |
| O=C(N[C@H](CO)[C@H](O)c1ccc([N+](=O)[O-])cc1)C(Cl)Cl [Chemical 2191] | – | 0.37 | 7.32 | 0.35 | – | – | – | – |
| CC(=O)n1ccnc1 [Chemical #58, 1-Acetylimidazole] | – | 6.03 | 0.42 | 0.17 | – | – | – | – |
| Nc1nc(=O)n([C@H]2C[C@H](O)[C@@H](CO)O2)cc1Br [Chemical #542, 5-Bromo-2'-deoxycytidine] | – | 6.28 | 1.26 | 1.08 | – | – | – | – |
| O=c1[nH]c(=O)n([C@H]2C[C@H](O)[C@@H](CO)O2)cc1Br [Chemical #543, 5-Bromo-2'-deoxyuridine] | – | 7.17 | 0.98 | 0.72 | – | – | – | – |
| CC(=O)N(C)c1ccc(N)cc1 [Chemical #1374, 4'-Amino-N-methyl-acetanilide] | – | 11.03 | 1.05 | 0.05 | – | – | – | – |
| CN(C)c1ccc(C(=C2C=CC(=[N+](C)C)C=C2)c2ccc(N(C)C)cc2)cc1 [Chemical #1780, Crystal Violet] | – | 20.39 | 1.15 | 0.38 | – | – | – | – |
| O=NN(O)c1ccccc1 [Chemical #1783, Cupferron] | – | 6.55 | 0.89 | 0.32 | – | – | – | – |
| Interleukin-1 beta: Interleukin-1 beta, known transcriptional inducer | – | – | – | – | – | – | – | 2.6 |
